Reference: US20230190871A1, “METHODS AND COMPOSITIONS FOR TREATMENT OF VIRAL INFECTIONS” (priority 2020, published 2023)
Where two headings read alike, the source gives them in different places.

Key:
[1] = test system: Vero E6 cells; details: African green monkey; for Cell Health: cell death / Cell Health: cells death: 48 h
[2] = test system: EGFP expression; assay: doxycycline-induced EGFP reporter expression (microscopy / flow cytometry) in transduced Vero-E6 cells; assay type: cell-based
[3] = test system: c19orf66 protein expression; assay: doxycycline-induced c19orf66 protein expression by western blot in transduced Vero-E6 cells; assay type: cell-based; details: bulk sorted cells re-induced with 0, 0.8, 4, 20, 100 or 500 ng/mL
[4] = test system: SARS CoV-2 (USA_WA1/2020); assay type: cell-based

Molecule | Cell Health: cell death ([1]; 10 ng/mL) | Cell Health: cell death ([1]; 20 ng/mL) | Cell Health: cells death ([1]; 50 ng/mL) | Cell Health: cells death ([1]; 100 ng/mL) | Cell Health: doxycycline concentration at which cell death is observed ([1]; 96 h) | EGFP: doxycycline concentration at which EGFP is visible ([2]; Bulk Sorted, 48 hours) | EGFP: doxycycline concentration giving strong signal ([2]; Bulk Sorted, 48 hours) | EGFP: doxycycline concentration at which EGFP is visible ([2]; Bulk Sorted, 96 hours) | EGFP: doxycycline concentration at which EGFP is visible ([2]; Clone 9, 48 hours) | EGFP: doxycycline concentration at which EGFP is visible ([2]; Clone 9, 96 hours) | EGFP: doxycycline concentration at which EGFP is visible ([2]; Clone 21, 48 hours) | EGFP: doxycycline concentration giving strong signal ([2]; Clone 21, 48 hours) | EGFP: doxycycline concentration at which EGFP is visible ([2]; Clone 21, 96 hours) | doxycycline concentration inducing c19orf66 (western blot) [3] | number of infected cells (% infected cells) [4] | viral inhibition relative to remdesivir control [4]
C[C@H]1c2cccc(O)c2C(=O)C2=C(O)[C@]3(O)C(=O)C(C(N)=O)=C(O)[C@@H](N(C)C)[C@@H]3[C@@H](O)[C@@H]21 [doxycycline] | 50% cell death at 10 ng/mL and worse at higher concentrations. | 50% | 20% | 40% | 10 ng/mL | 10 ng/mL | 20 ng/mL | Visible at ≧ 10 ng/mL | Visible at 10 ng/mL and higher concentrations. | Visible at ≧ 10 ng/mL | 5 ng/mL | 10 ng/mL | Visible at ≧ 10 ng/mL | at least 20 ng/mL |  | 
C19orf66: Chromosome 19 Open Reading Frame 66 protein, interferon-stimulated gene; here expressed from a doxycycline-inducible lentiviral construct |  |  |  |  |  |  |  |  |  |  |  |  |  |  | reduction | comparable to remdesivir
